From US9238656B2, “Imidazo[4,5-b]pyridine derivatives as ALK and JAK modulators for the treatment of proliferative disorders” (priority 2012, dated 2016)

Experiments:
[1] = biological target: baculovirus-expressed JAK2 kinase (Homo sapiens, UniProt O60674); assay: biochemical; settings: 0.2 μM ATP; read-out: JAK2 Potency
Procedure, shortened: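 IC50 derived by variable-slope sigmoidal fit of percent inhibition against log compound concentration. Baculovirus-expressed JAK2 (15 ng/mL) phosphorylated a plate-bound biotinylated 15-mer peptide for 20 min at room temperature; detection by time-resolved fluorescence.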

[2] = biological target: baculovirus-expressed ALK (Homo sapiens, UniProt Q9UM73); assay: ALK kinase inhibition, TRF/ELISA; type: biochemical; settings: read-out: ALK Potency
Procedure, shortened: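 Eu-PT66 anti-phosphotyrosine TRF read-out measured phosphorylation of plate-bound GST-PLC-γ (coated at 10 μg/mL). The phosphorylation was driven by 30 ng/mL ALK for 15 minutes at 37° C.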

Chain of baculovirus-expressed JAK2 kinase (O60674 whole entry): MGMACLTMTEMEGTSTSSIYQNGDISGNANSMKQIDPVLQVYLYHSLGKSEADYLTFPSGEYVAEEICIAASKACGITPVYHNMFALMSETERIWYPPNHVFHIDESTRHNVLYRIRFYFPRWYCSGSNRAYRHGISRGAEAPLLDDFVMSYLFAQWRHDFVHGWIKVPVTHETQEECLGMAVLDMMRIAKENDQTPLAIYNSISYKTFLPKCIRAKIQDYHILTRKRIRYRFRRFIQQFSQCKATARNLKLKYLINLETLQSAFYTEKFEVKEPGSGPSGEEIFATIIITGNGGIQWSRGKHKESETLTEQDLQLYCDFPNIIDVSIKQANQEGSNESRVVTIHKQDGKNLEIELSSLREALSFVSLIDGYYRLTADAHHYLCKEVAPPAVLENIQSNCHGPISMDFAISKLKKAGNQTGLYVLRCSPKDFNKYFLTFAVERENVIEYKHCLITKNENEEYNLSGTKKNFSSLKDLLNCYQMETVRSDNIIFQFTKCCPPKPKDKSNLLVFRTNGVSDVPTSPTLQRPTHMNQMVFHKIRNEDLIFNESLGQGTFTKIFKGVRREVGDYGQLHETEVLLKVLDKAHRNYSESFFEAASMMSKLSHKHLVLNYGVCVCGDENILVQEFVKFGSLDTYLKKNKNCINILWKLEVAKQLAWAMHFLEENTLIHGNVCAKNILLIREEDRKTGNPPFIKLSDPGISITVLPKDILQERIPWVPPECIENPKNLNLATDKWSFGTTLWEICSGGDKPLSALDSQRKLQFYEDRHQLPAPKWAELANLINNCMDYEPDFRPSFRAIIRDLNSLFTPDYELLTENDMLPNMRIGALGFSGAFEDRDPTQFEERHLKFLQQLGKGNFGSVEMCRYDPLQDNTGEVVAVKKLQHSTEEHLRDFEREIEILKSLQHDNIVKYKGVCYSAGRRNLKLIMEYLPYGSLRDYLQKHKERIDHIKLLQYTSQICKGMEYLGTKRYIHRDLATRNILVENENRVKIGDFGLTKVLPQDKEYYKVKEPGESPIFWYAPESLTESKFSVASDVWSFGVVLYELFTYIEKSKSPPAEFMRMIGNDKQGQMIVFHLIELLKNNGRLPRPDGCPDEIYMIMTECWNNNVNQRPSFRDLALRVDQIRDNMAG
Chain of baculovirus-expressed ALK (Q9UM73 19-1620): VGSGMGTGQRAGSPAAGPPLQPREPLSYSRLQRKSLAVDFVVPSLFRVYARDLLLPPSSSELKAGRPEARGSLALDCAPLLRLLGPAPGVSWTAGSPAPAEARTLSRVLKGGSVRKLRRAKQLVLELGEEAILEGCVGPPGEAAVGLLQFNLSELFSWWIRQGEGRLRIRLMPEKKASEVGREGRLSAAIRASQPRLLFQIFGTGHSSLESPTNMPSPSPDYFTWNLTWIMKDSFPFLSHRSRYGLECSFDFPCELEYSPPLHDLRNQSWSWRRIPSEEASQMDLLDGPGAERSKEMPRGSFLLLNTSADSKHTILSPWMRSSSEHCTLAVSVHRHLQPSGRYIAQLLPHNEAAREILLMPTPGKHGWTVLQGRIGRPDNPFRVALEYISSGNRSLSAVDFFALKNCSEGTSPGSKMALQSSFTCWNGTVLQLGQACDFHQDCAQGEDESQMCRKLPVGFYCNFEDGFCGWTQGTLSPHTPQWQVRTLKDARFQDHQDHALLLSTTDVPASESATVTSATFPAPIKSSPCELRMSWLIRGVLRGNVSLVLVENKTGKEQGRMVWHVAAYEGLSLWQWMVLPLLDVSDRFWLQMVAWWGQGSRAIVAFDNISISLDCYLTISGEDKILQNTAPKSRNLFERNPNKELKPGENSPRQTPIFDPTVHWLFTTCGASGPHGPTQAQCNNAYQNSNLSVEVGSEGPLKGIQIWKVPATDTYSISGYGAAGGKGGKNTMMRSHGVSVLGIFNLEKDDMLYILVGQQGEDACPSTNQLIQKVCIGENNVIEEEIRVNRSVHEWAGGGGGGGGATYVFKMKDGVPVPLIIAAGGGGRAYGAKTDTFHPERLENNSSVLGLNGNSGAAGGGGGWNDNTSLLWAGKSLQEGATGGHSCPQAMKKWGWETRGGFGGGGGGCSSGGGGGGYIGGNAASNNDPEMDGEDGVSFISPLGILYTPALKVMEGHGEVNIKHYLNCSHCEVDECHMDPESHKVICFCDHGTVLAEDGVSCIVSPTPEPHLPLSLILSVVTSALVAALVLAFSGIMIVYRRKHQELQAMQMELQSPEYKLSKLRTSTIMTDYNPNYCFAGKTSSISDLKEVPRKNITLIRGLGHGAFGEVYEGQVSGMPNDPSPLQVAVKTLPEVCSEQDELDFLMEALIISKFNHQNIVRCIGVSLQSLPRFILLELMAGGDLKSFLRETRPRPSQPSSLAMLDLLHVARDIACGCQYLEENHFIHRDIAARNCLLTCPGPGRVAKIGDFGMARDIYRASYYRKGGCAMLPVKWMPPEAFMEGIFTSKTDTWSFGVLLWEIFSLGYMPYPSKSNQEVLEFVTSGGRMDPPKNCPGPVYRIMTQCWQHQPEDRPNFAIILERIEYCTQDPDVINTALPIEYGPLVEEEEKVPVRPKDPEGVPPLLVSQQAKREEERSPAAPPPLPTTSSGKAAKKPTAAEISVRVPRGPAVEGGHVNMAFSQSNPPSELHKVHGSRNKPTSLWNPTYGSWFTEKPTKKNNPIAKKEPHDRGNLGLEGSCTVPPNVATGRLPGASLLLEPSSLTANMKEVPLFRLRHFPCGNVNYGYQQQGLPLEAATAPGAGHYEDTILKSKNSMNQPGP

| SMILES | IC50 [1] [nM] | IC50 [2] [nM] | melting point [°C] |
| --- | --- | --- | --- |
| NC(=O)[C@@H]1[C@H](Nc2c(Cl)cnc3[nH]c(-c4cccc(C(=O)NC(CO)C(=O)O)c4)nc23)[C@H]2C=C[C@@H]1C2 (stereo partly drawn) [Compound CCXXIX, 2-(3-(7-((1R,2R,3S,4S)-3-carbamoylbicyclo(2.2.1)hept-5-en-2-ylamino)-6-chloro-3H-imidazo[4,5-b]pyridine-2-yl)benzamido)-3-hydroxypropanoic acid] | < 100 | 1000 to 10000 | 243 |
| COc1ncccc1-c1nc2c(N[C@H]3[C@@H](C(N)=O)[C@@H]4C=C[C@H]3C4)c(Br)cnc2[nH]1 [Compound CI, (1S,2S,3R,4R)-3-[6-Bromo-2-(2-methoxy-pyridin-3-yl)-3H-imidazo[4,5-b]pyridin-7-ylamino]-bicyclo[2.2.1]hept-5-ene-2-carboxylic acid amide] | < 100 | < 100 | 201 |
| CN1CCN(c2ccc(-c3nc4c(N[C@H]5[C@@H](C(N)=O)[C@@H]6C=C[C@H]5C6)ccnc4[nH]3)cc2)CC1 [Compound LXXXVIII, (1S,2S,3R,4R)-3-{2-[4-(4-Methyl-piperazin-1-yl)-phenyl]-3H-imidazo[4,5-b]pyridin-7-ylamino}-bicyclo[2.2.1]hept-5-ene-2-carboxylic acid amide] | 1000 to 10000 | 1000 to 10000 | 220 to 222 |
| NC(=O)[C@@H]1[C@H](Nc2ccnc3[nH]c(-c4ccc(CN5CCOCC5)cc4)nc23)[C@H]2C=C[C@@H]1C2 [Compound XC, (1S,2S,3R,4R)-3-[2-(4-Morpholin-4-ylmethyl-phenyl)-3H-imidazo[4,5-b]pyridin-7-ylamino]-bicyclo[2.2.1]hept-5-ene-2-carboxylic acid amide] | 1000 to 10000 | > 10000 | 240 to 244 |
| Cc1ccc(-c2nc3c(N[C@H]4[C@@H](C(N)=O)[C@@H]5C=C[C@H]4C5)c(Br)cnc3[nH]2)o1 [Compound CX, (1S,2S,3R,4R)-3-[6-Bromo-2-(5-methyl-furan-2-yl)-3H-imidazo[4,5-b]pyridin-7-ylamino]-bicyclo[2.2.1]hept-5-ene-2-carboxylic acid amide] | < 100 | 100 to 1000 | 200 to 201 |
| NC(=O)[C@@H]1[C@H](Nc2c(Cl)cnc3[nH]c(-c4ccc5c(c4)CCC4(CCNCC4)O5)nc23)[C@H]2C=C[C@@H]1C2 [Compound CXV, (1S,2S,3R,4R)-3-[(6-chloro-2-spiro[chromane-2,4′-piperidine]-6-yl-3H-imidazo[4,5-b]pyridin-7-yl)amino]bicyclo[2.2.1]hept-5-ene-2-carboxamide] | < 100 | < 100 | > 250 |
| NC(=O)[C@@H]1[C@H](Nc2c(Br)cnc3[nH]c(-c4ccsc4)nc23)[C@H]2C=C[C@@H]1C2 [Compound CXI, (1S,2S,3R,4R)-3-(6-Bromo-2-thiophen-3-yl-3H-imidazo[4,5-b]pyridin-7-ylamino)-bicyclo[2.2.1]hept-5-ene-2-carboxylic acid amide] | < 100 | < 100 | 238 to 241 |
| NC(=O)[C@@H]1[C@H](Nc2ccnc3[nH]c(-c4ccc(N5CCOCC5)cc4)nc23)[C@H]2C=C[C@@H]1C2 [Compound LXXXIX, (1S,2S,3R,4R)-3-[2-(4-Morpholin-4-yl-phenyl)-3H-imidazo[4,5-b]pyridin-7-ylamino]-bicyclo[2.2.1]hept-5-ene-2-carboxylic acid amide] | 1000 to 10000 | > 10000 | 240 to 244 |
| NC(=O)[C@@H]1[C@H](Nc2c(Cl)cnc3[nH]c(-c4ccc(C(=O)NC(CO)C(=O)O)cc4)nc23)[C@H]2C=C[C@@H]1C2 (stereo partly drawn) [Compound CCXXX, 2-(4-(7-((1R,2R,3S,4S)-3-carbamoylbicyclo(2.2.1)hept-5-en-2-ylamino)-6-chloro-3H-imidazo[4,5-b]pyridine-2-yl)benzamido)-3-hydroxypropanoic acid] | < 100 | 100 to 1000 | 186 |
| NC(=O)[C@@H]1[C@H](Nc2c(Br)cnc3[nH]c(-c4cccc(N5CCOCC5)c4)nc23)[C@H]2C=C[C@@H]1C2 [Compound LXXXIII, (1S,2S,3R,4R)-3-[6-Bromo-2-(3-morpholin-4-yl-phenyl)-3H-imidazo[4,5-b]pyridin-7-ylamino]-bicyclo[2.2.1]hept-5-ene-2-carboxylic acid amide] | < 100 | < 100 | 232 to 234 |
| NC(=O)[C@@H]1[C@H](Nc2c(Cl)cnc3[nH]c(-c4ccc(C(=O)NCC(=O)O)cc4)nc23)[C@H]2C=C[C@@H]1C2 [Compound CCXXVIII, 2-(4-(7-((1R,2R,3S,4S)-3-carbamoylbicyclo[2.2.1]hept-5-en-2-ylamino)-6-chloro-3H-imidazo[4,5-b]pyridine-2-yl)benzamido)acetic acid] | < 100 | 100 to 1000 | 291 |

The next lines start with the values.

| IC50 [1] [nM] | IC50 [2] [nM] | melting point [°C] | SMILES |
| --- | --- | --- | --- |
| < 100 | < 100 | 205 to 208 | COc1cc(CN2CC[C@H](O)C2)ccc1-c1nc2c(N[C@H]3[C@@H](C(N)=O)[C@@H]4C=C[C@H]3C4)c(Cl)cnc2[nH]1 [Compound LV, (1S,2S,3R,4R)-3-{6-Chloro-2-[4-((S)-3-hydroxy-pyrrolidin-1-ylmethyl)-2-methoxyphenyl]-3H-imidazo[4,5-b]pyridine-7-ylamino}-bicyclo[2.2.1]hept-5-ene-2-carboxylic acid amide] |
| < 100 | 100 to 1000 | 183 | CC(O)CN1CCN(C(=O)c2cccc(-c3nc4c(N[C@H]5[C@@H](C(N)=O)[C@@H]6C=C[C@H]5C6)c(Cl)cnc4[nH]3)c2)CC1 (stereo partly drawn) [Compound CCXXIII, (1S,2S,3R,4R)-3-(6-chloro-2-(3-(4-(2-hydroxypropyl)piperazine-1-carbonyl)phenyl)-3H-imidazo[4,5-b]pyridine-7-ylamino)pyridin[2.2.1]hept-5-ene-2-carboxamide] |
| < 100 | < 100 | 116 to 122 | COC[C@H](O)CN1CCC(c2ccc(-c3nc4c(N[C@H]5[C@@H](C(N)=O)[C@@H]6C=C[C@H]5C6)c(Cl)cnc4[nH]3)c(OC)c2)CC1 [Compound LIV] |
| < 100 | < 100 | 224 | CC(O)CN1CCN(C(=O)c2ccc(-c3nc4c(N[C@H]5[C@@H](C(N)=O)[C@@H]6C=C[C@H]5C6)c(Cl)cnc4[nH]3)cc2)CC1 (stereo partly drawn) [Compound CCXXIV, (1S,2S,3R,4R)-3-(6-chloro-2-(4-(4-(2-hydroxypropyl)piperazine-1-carbonyl)phenyl)-3H-imidazo[4,5-b]pyridine-7-ylamino)pyridin[2.2.1]hept-5-ene-2-carboxamide] |
| < 100 | < 100 | 218 to 220 | COc1cc(N(C)C)ccc1-c1nc2c(N[C@H]3[C@@H](C(N)=O)[C@@H]4C=C[C@H]3C4)c(Br)cnc2[nH]1 [Compound LXXXIV, (1S,2S,3R,4R)-3-[6-Bromo-2-(4-dimethylamino-2-methoxy-phenyl)-3H-imidazo[4,5-b]pyridin-7-ylamino]-bicyclo[2.2.1]hept-5-ene-2-carboxylic acid amide] |
| 1000 to 10000 | 1000 to 10000 | 185 to 195 | COc1cc(N2CCN(C)CC2)ccc1-c1nc2c(N[C@H]3[C@@H](C(N)=O)[C@@H]4C=C[C@H]3C4)ccnc2[nH]1 [Compound XCV, (1S,2S,3R,4R)-3-{2-[2-Methoxy-4-(4-methyl-piperazin-1-yl)-phenyl]-3H-imidazo[4,5-b]pyridin-7-ylamino}-bicyclo[2.2.1]hept-5-ene-2-carboxylic acid amide] |
| < 100 | < 100 | 133 to 137 | COc1c(CN2CCOCC2)cccc1-c1nc2c(N[C@H]3[C@@H](C(N)=O)[C@@H]4C=C[C@H]3C4)c(Cl)cnc2[nH]1 [Compound LIII, (1S,2S,3R,4R)-3-[6-Chloro-2-(2-methoxy-3-morpholin-4-ylmethyl-phenyl)-3H-imidazo[4,5-b]pyridine-7-ylamino]-bicyclo[2.2.1]hept-5-ene-2-carboxylic acid amide] |
| < 100 | < 100 | 109 to 113 | COc1cc(CN2CCN(C(C)=O)CC2)ccc1-c1nc2c(N[C@H]3[C@@H](C(N)=O)[C@@H]4C=C[C@H]3C4)c(Cl)cnc2[nH]1 [Compound LI] |
| 1000 to 10000 | 1000 to 10000 | 190 | NC(=O)[C@@H]1[C@H](Nc2c(Br)cnc3[nH]c(-c4cccnc4N4CCCC4)nc23)[C@H]2C=C[C@@H]1C2 [Compound CV, (1S,2S,3R,4R)-3-[6-Bromo-2-(2-pyrrolidin-1-yl-pyridin-3-yl)-3H-imidazo[4,5-b]pyridin-7-ylamino]-bicyclo[2.2.1]hept-5-ene-2-carboxylic acid amide] |
| < 100 | < 100 | > 120 | COc1cc(C2CCN(C[C@@H](C)O)CC2)ccc1-c1nc2c(N[C@H]3[C@@H](C(N)=O)[C@@H]4C=C[C@H]3C4)c(Cl)cnc2[nH]1 [Compound CXVI] |
| < 100 | < 100 | 232 to 235 | COc1cc(C2CCN(C)CC2)ccc1-c1nc2c(N[C@H]3[C@@H](C(N)=O)[C@@H]4C=C[C@H]3C4)c(Cl)cnc2[nH]1 [Compound CXVII, (1S,2S,3R,4R)-3-{6-Chloro-2-[2-methoxy-4-(1-methyl-piperidin-4-yl)-phenyl]-3H-imidazo[4,5-b]pyridin-7-ylamino}-bicyclo[2.2.1]hept-5-ene-2-carboxylic acid amide] |
